Reference: ChEMBL document CHEMBL1201862, “PubChem BioAssay data set” (2004)
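Assay format: 96-well plates, 48-hour exposure. GI50 marks 50% less growth.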 Active and inactive are the calls of the source. Cut-off read from the data, not from the text of the source: active = GI50 up to about 1.1 µM and inactive = higher.

What was measured:
Assay in all cases: NCI tumour cell line growth inhibition, 48 h
SF-539 = test system: SF-539
OVCAR-4 = test system: OVCAR-4
EKVX = test system: EKVX
HCT-116 = test system: HCT-116
T47D = test system: T47D
KM12 = test system: KM12
IGROV-1 = test system: IGROV-1
SN12C = test system: SN12C
SR = test system: SR
NCI-H460 = test system: NCI-H460
TK-10 = test system: TK-10
SF-268 = test system: SF-268
LOX IMVI = test system: LOX IMVI
CCRF-CEM = test system: CCRF-CEM
SK-MEL-28 = test system: SK-MEL-28
NCI-H23 = test system: NCI-H23
MDA-N = test system: MDA-N
NCI-H226 = test system: NCI-H226
OVCAR-5 = test system: OVCAR-5
NCI-H522 = test system: NCI-H522

SMILES: N#Cc1c(N)nc(SCc2ccccc2)c(C#N)c1-c1ccc(O)cc1
- GI50 (SF-539): 19.5 µM (inactive)
- GI50 (OVCAR-4): 10.3 µM (inactive)
- GI50 (EKVX): 9.44 µM (inactive)
- GI50 (HCT-116): 11.5 µM (inactive)
- GI50 (T47D): 5.96 µM (inactive)
- GI50 (KM12): 11 µM (inactive)
- GI50 (IGROV-1): 11 µM (inactive)
- GI50 (SN12C): 13.8 µM (inactive)
- GI50 (SR): 10.9 µM (inactive)
- GI50 (NCI-H460): 25.8 µM (inactive)
- GI50 (TK-10): > 41.8 µM (inactive)
- GI50 (SF-268): 18.9 µM (inactive)
- GI50 (LOX IMVI): 16.6 µM (inactive)
- GI50 (CCRF-CEM): 13.4 µM (inactive)
- GI50 (SK-MEL-28): 13.4 µM (inactive)
- GI50 (NCI-H23): 15.9 µM (inactive)
- GI50 (MDA-N): 13 µM (inactive)
- GI50 (NCI-H226): 22.4 µM (inactive)
- GI50 (OVCAR-5): 16.4 µM (inactive)
- GI50 (NCI-H522): 12.6 µM (inactive)

SMILES: COc1cc2cc(C(=O)N3CC(CCl)c4ccc(NCCN)cc43)[nH]c2c(OC)c1OC (stereo not given)
- GI50 (SF-539): 0.209 µM (active)
- GI50 (OVCAR-4): 0.263 µM (active)
- GI50 (EKVX): 0.528 µM (active)
- GI50 (HCT-116): 0.217 µM (active)
- GI50 (T47D): 0.301 µM (active)
- GI50 (KM12): 0.206 µM (active)
- GI50 (IGROV-1): 0.112 µM (active)
- GI50 (SN12C): 0.237 µM (active)
- GI50 (SR): 0.0279 µM (active)
- GI50 (NCI-H460): 0.0658 µM (active)
- GI50 (TK-10): 0.33 µM (active)
- GI50 (SF-268): 0.242 µM (active)
- GI50 (LOX IMVI): 0.155 µM (active)
- GI50 (CCRF-CEM): 0.0783 µM (active)
- GI50 (SK-MEL-28): 0.249 µM (active)
- GI50 (NCI-H23): 0.0822 µM (active)
- GI50 (MDA-N): 0.176 µM (active)
- GI50 (NCI-H226): 0.296 µM (active)
- GI50 (OVCAR-5): 0.337 µM (active)
- GI50 (NCI-H522): 0.046 µM (active)

SMILES: O=C1CS(=O)(=O)C(c2cccc(Oc3ccccc3)c2)N1c1ccc(Cl)cc1 (stereo not given)
- GI50 (SF-539): 19.5 µM (inactive)
- GI50 (OVCAR-4): 22.8 µM (inactive)
- GI50 (EKVX): 11.5 µM (inactive)
- GI50 (HCT-116): 7.91 µM (inactive)
- GI50 (T47D): 10.9 µM (inactive)
- GI50 (KM12): 14.8 µM (inactive)
- GI50 (IGROV-1): 14.3 µM (inactive)
- GI50 (SN12C): 22.1 µM (inactive)
- GI50 (SR): 10.6 µM (inactive)
- GI50 (NCI-H460): 15 µM (inactive)
- GI50 (TK-10): 22.6 µM (inactive)
- GI50 (SF-268): 25.1 µM (inactive)
- GI50 (LOX IMVI): 14.4 µM (inactive)
- GI50 (CCRF-CEM): 25.6 µM (inactive)
- GI50 (SK-MEL-28): 32.4 µM (inactive)
- GI50 (NCI-H23): 21.1 µM (inactive)
- GI50 (MDA-N): 16.8 µM (inactive)
- GI50 (NCI-H226): 21.9 µM (inactive)
- GI50 (OVCAR-5): 25.1 µM (inactive)
- GI50 (NCI-H522): 16.8 µM (inactive)

SMILES: CCOC(=O)c1[nH]cc(C)c1-c1c[nH]c2ccccc12
- GI50 (SF-539): 22.8 µM (inactive)
- GI50 (OVCAR-4): 41.5 µM (inactive)
- GI50 (EKVX): > 63.8 µM (inactive)
- GI50 (HCT-116): 6.93 µM (inactive)
- GI50 (T47D): 36.3 µM (inactive)
- GI50 (KM12): 42.6 µM (inactive)
- GI50 (IGROV-1): 33.2 µM (inactive)
- GI50 (SN12C): 56 µM (inactive)
- GI50 (SR): 1.82 µM (inactive)
- GI50 (NCI-H460): 12.1 µM (inactive)
- GI50 (TK-10): 19.5 µM (inactive)
- GI50 (SF-268): 23.7 µM (inactive)
- GI50 (LOX IMVI): 18 µM (inactive)
- GI50 (CCRF-CEM): 18.9 µM (inactive)
- GI50 (SK-MEL-28): 39.4 µM (inactive)
- GI50 (NCI-H23): 27.2 µM (inactive)
- GI50 (MDA-N): 24.9 µM (inactive)
- GI50 (NCI-H226): 19.9 µM (inactive)
- GI50 (OVCAR-5): 39.7 µM (inactive)
- GI50 (NCI-H522): 24.6 µM (inactive)

SMILES: CCCCCCCCCCCC(=O)N(CCCCCCCCCCC(=O)O)CC(O)C(O)C(OC1OC(CO)C(O)C(O)C1O)C(O)CO (stereo not given)
- GI50 (SF-539): > 100 µM (inactive)
- GI50 (OVCAR-4): > 100 µM (inactive)
- GI50 (EKVX): > 100 µM (inactive)
- GI50 (HCT-116): > 100 µM (inactive)
- GI50 (T47D): > 100 µM (inactive)
- GI50 (KM12): > 100 µM (inactive)
- GI50 (IGROV-1): > 100 µM (inactive)
- GI50 (SN12C): > 100 µM (inactive)
- GI50 (SR): > 100 µM (inactive)
- GI50 (NCI-H460): > 100 µM (inactive)
- GI50 (TK-10): > 100 µM (inactive)
- GI50 (SF-268): > 100 µM (inactive)
- GI50 (LOX IMVI): > 100 µM (inactive)
- GI50 (CCRF-CEM): > 100 µM (inactive)
- GI50 (SK-MEL-28): > 100 µM (inactive)
- GI50 (NCI-H23): > 100 µM (inactive)
- GI50 (MDA-N): > 100 µM (inactive)
- GI50 (NCI-H226): > 100 µM (inactive)
- GI50 (OVCAR-5): > 100 µM (inactive)
- GI50 (NCI-H522): > 100 µM (inactive)

SMILES: N#Cc1ncc(C(Cl)Cl)nc1Cl
- GI50 (SF-539): 1.73 µM (inactive)
- GI50 (OVCAR-4): 1.85 µM (inactive)
- GI50 (EKVX): 1.75 µM (inactive)
- GI50 (HCT-116): 1.67 µM (inactive)
- GI50 (T47D): 1.76 µM (inactive)
- GI50 (KM12): 1.4 µM (inactive)
- GI50 (IGROV-1): 2.09 µM (inactive)
- GI50 (SN12C): 1.74 µM (inactive)
- GI50 (SR): 1.81 µM (inactive)
- GI50 (NCI-H460): 1.81 µM (inactive)
- GI50 (TK-10): 2.35 µM (inactive)
- GI50 (SF-268): 2.43 µM (inactive)
- GI50 (LOX IMVI): 1.44 µM (inactive)
- GI50 (CCRF-CEM): 0.491 µM (active)
- GI50 (SK-MEL-28): 1.89 µM (inactive)
- GI50 (NCI-H23): 2.12 µM (inactive)
- GI50 (MDA-N): 1.5 µM (inactive)
- GI50 (NCI-H226): 9.27 µM (inactive)
- GI50 (OVCAR-5): 1.95 µM (inactive)
- GI50 (NCI-H522): 0.502 µM (active)

SMILES: O=C(O)C[S+]([O-])c1ccc2c3c(cccc13)C(=O)c1ccccc1-2 (stereo not given)
- GI50 (SF-539): > 100 µM (inactive)
- GI50 (OVCAR-4): > 100 µM (inactive)
- GI50 (EKVX): 55.1 µM (inactive)
- GI50 (HCT-116): > 100 µM (inactive)
- GI50 (T47D): > 100 µM (inactive)
- GI50 (KM12): > 100 µM (inactive)
- GI50 (IGROV-1): > 100 µM (inactive)
- GI50 (SN12C): > 100 µM (inactive)
- GI50 (SR): > 100 µM (inactive)
- GI50 (NCI-H460): > 100 µM (inactive)
- GI50 (TK-10): > 100 µM (inactive)
- GI50 (SF-268): > 100 µM (inactive)
- GI50 (LOX IMVI): > 100 µM (inactive)
- GI50 (CCRF-CEM): > 100 µM (inactive)
- GI50 (SK-MEL-28): > 100 µM (inactive)
- GI50 (NCI-H23): > 100 µM (inactive)
- GI50 (MDA-N): > 100 µM (inactive)
- GI50 (NCI-H226): > 100 µM (inactive)
- GI50 (OVCAR-5): > 100 µM (inactive)
- GI50 (NCI-H522): > 100 µM (inactive)
